Test results taken from publication PMC4464473, “Synthesis of multivalent carbohydrate mimetics with aminopolyol end groups and their evaluation as L-selectin inhibitors” (Beilstein Journal of Organic Chemistry, 2015).
pIC50: −log10 of the molar value.

Molecular target: T1, L-selectin (Homo sapiens, UniProt P14151)
T1 construct: gene SELL
T1 sequence (P14151 39-372): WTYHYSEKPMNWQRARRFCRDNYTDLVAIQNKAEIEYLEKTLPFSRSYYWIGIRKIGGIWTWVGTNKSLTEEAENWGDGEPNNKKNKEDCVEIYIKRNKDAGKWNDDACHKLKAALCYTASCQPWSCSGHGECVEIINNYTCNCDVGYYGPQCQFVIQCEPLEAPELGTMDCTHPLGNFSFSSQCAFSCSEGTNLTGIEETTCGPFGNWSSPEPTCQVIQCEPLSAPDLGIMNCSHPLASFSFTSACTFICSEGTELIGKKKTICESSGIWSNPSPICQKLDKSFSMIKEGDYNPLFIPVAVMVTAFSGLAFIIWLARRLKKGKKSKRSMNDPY
Assay: competitive SPR binding assay

pIC50 | SMILES
6.00 | O=C(NC(COS(=O)(=O)O)COS(=O)(=O)O)c1ccc(C(=O)NC(COS(=O)(=O)O)COS(=O)(=O)O)cc1 [compound 32, O-sulfated divalent amide 32]
5.70 | CC1(C)O[C@H](COS(=O)(=O)O)[C@H](NC(=O)c2ccc(-c3cc(-c4ccc(C(=O)N[C@@H]5[C@@H](OS(=O)(=O)O)[C@H](COS(=O)(=O)O)C(C)(C)O[C@@H]5COS(=O)(=O)O)cc4)cc(-c4ccc(C(=O)N[C@@H]5[C@@H](OS(=O)(=O)O)[C@H](COS(=O)(=O)O)C(C)(C)O[C@@H]5COS(=O)(=O)O)cc4)c3)cc2)[C@@H](OS(=O)(=O)O)[C@@H]1COS(=O)(=O)O [compound 34, O-sulfated trivalent amide 34]
